Test results from BigSolDB 2.1.

O=C1OC(=O)[C@H]2[C@@H]1[C@@H]1C=C[C@H]2O1
solubility (mole fraction)
Conditions | 278.15 K | 283.15 K | 288.15 K | 293.15 K | 298.15 K | 303.15 K | 308.15 K | 313.15 K | 318.15 K | 323.15 K
in 1,4-dioxane | – | – | 0.0238 | 0.0288 | 0.0342 | 0.0414 | 0.052 | 0.0647 | 0.0857 | 0.134
in DMF | 0.106 | 0.117 | 0.126 | 0.138 | 0.15 | 0.164 | 0.181 | 0.192 | 0.218 | 0.238
in NMP | 0.133 | 0.144 | 0.155 | 0.17 | 0.184 | 0.199 | 0.211 | 0.235 | 0.256 | 0.277
in acetone | 0.038 | 0.0434 | 0.0483 | 0.0556 | 0.0629 | 0.0717 | 0.0818 | 0.0932 | 0.107 | 0.125
in acetonitrile | 0.0308 | 0.0353 | 0.0393 | 0.0453 | 0.0508 | 0.0576 | 0.0667 | 0.078 | 0.0887 | 0.109
in ethyl acetate | 0.0157 | 0.0179 | 0.0207 | 0.0234 | 0.0275 | 0.031 | 0.0363 | 0.0414 | 0.0482 | 0.0569
in isobutyl acetate | 0.00929 | 0.011 | 0.0122 | 0.0143 | 0.0165 | 0.0189 | 0.022 | 0.0248 | 0.0283 | 0.0324
in isopentyl acetate | 0.00727 | 0.00841 | 0.00971 | 0.011 | 0.0129 | 0.0147 | 0.0168 | 0.0196 | 0.0214 | 0.0251
in isopropyl acetate | 0.0101 | 0.0126 | 0.014 | 0.0164 | 0.0191 | 0.022 | 0.0255 | 0.0295 | 0.0335 | 0.0395
in methyl acetate | 0.0236 | 0.0281 | 0.031 | 0.0368 | 0.042 | 0.0496 | 0.0582 | 0.0687 | 0.0806 | 0.0965
in n-butyl acetate | 0.00989 | 0.0115 | 0.0129 | 0.0149 | 0.0172 | 0.0196 | 0.0226 | 0.0258 | 0.0285 | 0.0339
in n-pentyl acetate | 0.00784 | 0.00916 | 0.0105 | 0.012 | 0.0137 | 0.0158 | 0.018 | 0.0205 | 0.0231 | 0.0264
in n-propyl acetate | 0.012 | 0.0135 | 0.0159 | 0.0179 | 0.021 | 0.0244 | 0.0277 | 0.033 | 0.0388 | 0.0435
